{"source": "patent US5132293A", "about": "“Enzymic alteration of hair growth” (priority 1991, dated 1992)", "key": {"[1]": {"tested_on": "brain 4-aminobutyric acid levels", "conditions": "transformation catalyzed by mitochondrial monoamine oxidase; cited from earlier work"}, "flank organ hair": {"tested_on": "flank organ hair", "assay": "Hamster flank organ hair growth inhibition by topical inhibitor (hair mass, treated organ vs vehicle-treated organ)", "assay_type": "in vivo, male intact Golden Syrian hamsters", "conditions": "for Flank Organ Hair Mass, Treated: ± SE; for Hair Growth Inhibition: percent decrease vs vehicle-treated organ", "description": "A series of compositions was prepared each containing a given concentration of specified inhibitor in the foregoing vehicle, as listed in Table 1 below.\nFour groups (eight animals in each group) of male intact Golden Syrian hamsters were provided. These animals were considered acceptable models for human beard hair growth in that they display oval shaped flank organs, one on each side, each about 8 mm in major diameter, which grow thick black and coarse hair similar to human beard hair. These organs produce hair in response to androgens in the hamster. The flank organs of each hamster were depilated by applying a thioglycolate-based chemical depilatory (Surgex), and to one organ of each animal was applied 10 μL. of vehicle alone once a day, while to the other organ of each animal was applied an equal amount of vehicle containing inhibitor. After 14 such applications (Mon.-Fri.) over a period of 18 days, the flank organs were shaved and the amount of recovered hair (hair mass) from each was weighed. The extent of reduction in hair growth by the inhibitor was expressed as the percent decrease in hair mass on the organ treated with inhibitor as compared to the organ treated with vehicle alone. As a control, one group of eight animals had both flank organs of each animal treated with vehicle alone.\nThe same procedure was followed as in Example 1 except that the vehicle used for the compositions consisted of water alone.\nThe same test procedure was followed except that the compositions were applied to the hamster flank organs every day for fifteen successive days, at which time hair mass was measured; the results were as follows: […]"}, "sebum excretion": {"tested_on": "sebum excretion", "conditions": "topical, cited from earlier work"}, "hair growth": {"tested_on": "hair growth", "conditions": "intact males; Table 3, Group VI vs. Group X; cited from earlier work"}, "sebaceous glands": {"tested_on": "sebaceous glands", "conditions": "cited from earlier work"}, "hamster flank organ": {"tested_on": "hamster flank organ", "conditions": "topical application; cited from earlier work"}, "[2]": {"conditions": "Table 1, 5% of each inhibitor in water/ethanol/glycol vehicle, 10 μL once a day, 14 applications over 18 days"}, "[3]": {"conditions": "Table 1, 5% of each inhibitor in water/ethanol/glycol vehicle, 14 applications over 18 days"}, "[4]": {"conditions": "Table 3, 5% of each inhibitor, Example 1 vehicle, every day for fifteen successive days"}}, "note": "Like-named read-outs stand apart in the source and are kept apart here.", "data": [{"molecule": "C#CC(N)CCCN", "note": "(stereo not shown) [5-hexyne-1,4-diamine]", "values": [{"measurement": "brain 4-aminobutyric acid levels", "setting": "[1]", "result": "increases in brain 4-aminobutyric acid levels"}]}, {"molecule": "CC(C=NNC(=N)N)=NNC(=N)N", "note": "[MGBG, methylglyoxal bis(guanylhydrazone)]", "values": [{"measurement": "Flank Organ Hair Mass, Treated", "setting": "flank organ hair; [2]", "result": "1.54 ± .22 mg"}, {"measurement": "Hair Growth Inhibition", "setting": "flank organ hair; [3]", "result": "40.3 ± 7.4", "unit": "%"}, {"measurement": "Hair Growth Inhibition", "setting": "flank organ hair; [4]", "result": "42.3 ± 8.2", "unit": "%"}, {"measurement": "Flank Organ Hair Mass, Treated", "setting": "flank organ hair; [4]", "result": "0.56 ± .11 mg"}]}, {"molecule": "CC(=O)[C@H]1CC[C@H]2[C@@H]3CCC4=CC(=O)CC[C@]4(C)[C@H]3CC[C@]12C", "note": "[progesterone]", "values": [{"measurement": "reducing sebum excretion rates", "setting": "sebum excretion; females", "result": "effective in reducing sebum excretion rates in females"}, {"measurement": "reducing sebum excretion rates", "setting": "sebum excretion; males", "result": "without effect in males"}, {"measurement": "effect on inhibition of hair growth", "setting": "hair growth", "result": "doubtful"}, {"measurement": "effectiveness of progesterone", "setting": "sebaceous glands; female", "result": "effective in the female"}, {"measurement": "effectiveness of progesterone", "setting": "sebaceous glands; male", "result": "not in the male"}]}, {"molecule": "CCC(=NNC(=N)N)C(CC)=NNC(=N)N", "note": "[DEGBG, diethylglyoxal bis(guanylhydrazone)]", "values": [{"measurement": "Flank Organ Hair Mass, Treated", "setting": "flank organ hair; Table 2, 2.5% inhibitor, vehicle water alone, 14 applications over 18 days", "result": "2.62 ± .15 mg"}, {"measurement": "Hair Growth Inhibition", "setting": "flank organ hair; Table 2, 2.5% inhibitor, vehicle water alone", "result": "15.9 ± 5.2", "unit": "%"}]}, {"molecule": "NCCC[C@](N)(C(=O)O)C(F)F", "note": "[DFMO, 2-(difluoromethyl)-ornithine]", "values": [{"measurement": "Flank Organ Hair Mass, Treated", "setting": "flank organ hair; [2]", "result": "0.99 ± .08 mg"}, {"measurement": "Hair Growth Inhibition", "setting": "flank organ hair; [3]", "result": "64.3 ± 3.7", "unit": "%"}, {"measurement": "Flank Organ Hair Mass, Treated", "setting": "flank organ hair; Table 2, 5% inhibitor, vehicle water alone, 14 applications over 18 days", "result": "2.70 ± .22 mg"}, {"measurement": "Hair Growth Inhibition", "setting": "flank organ hair; Table 2, 5% inhibitor, vehicle water alone", "result": "18.8 ± 3.7", "unit": "%"}, {"measurement": "Hair Growth Inhibition", "setting": "flank organ hair; [4]", "result": "44.4 ± 18.2", "unit": "%"}, {"measurement": "Flank Organ Hair Mass, Treated", "setting": "flank organ hair; [4]", "result": "0.49 ± .14 mg"}]}, {"molecule": "CCC[C@]1(O)CC[C@H]2[C@@H]3CCC4=CC(=O)CC[C@]4(C)[C@H]3CC[C@@]21C", "note": "[17β-hydroxy-17α-propylandrost-4-en-3-one]", "values": [{"measurement": "reduction in hair growth of the hamster flank organ", "setting": "hamster flank organ", "result": "substantial reduction in hair growth"}, {"measurement": "size of the flank organ", "setting": "hamster flank organ", "result": "reduction in the size of the flank organ"}]}, {"molecule": "CN(CCON)C[C@H]1O[C@@H](n2cnc3c(N)ncnc32)[C@H](O)[C@@H]1O", "note": "[MAOEA, 5'-deoxy-5'-[N-methyl-N-(2-[aminooxy]ethyl)] aminoadenosine]", "values": [{"measurement": "Flank Organ Hair Mass, Treated", "setting": "flank organ hair; [2]", "result": "2.03 ± .18 mg"}, {"measurement": "Hair Growth Inhibition", "setting": "flank organ hair; [3]", "result": "29.4 ± 5.9", "unit": "%"}]}]}
